From patent US20030104079A1, “Skin tissue regeneration promoters comprising ginsenoside Rb1” (Japan Science and Technology Corporation, Japan, priority 2000, published 2003)

Assays:
[1] = test system: open wound of rat skin; test: Open wound healing by external or topical application to skin (propet ointment); assay type: in vivo, rats; conditions: for action to promote wound healing: sprayed or spread on the local open wound of rats' skin, inventors' experiences
From the text: For that purpose, for example, by using Wistar male rats (body weight about 300 g), the punch biopsies with diameter 6 mm were made in the dorsal region of animals after shaving under inhalation anesthesia to prepare 3 regions of open wound. Among them, 0.1 g of ophthalmic white Vaseline (Propet) containing 0.01% by weight or 0.001% by weight of ginsenoside Rb1 was spread once for every day in two regions, and in the remaining open wound, the equal amount of ophthalmic white Vaseline (propet) was spread. Nine days after preparing open wound, the skin including wound regions was photographed. Further, we have examined the effects of external or topical cutaneous spread of 0.0001% by weight, 0.00001% by weight or 0.000001% by weight of ginsenoside Rb1 by the same procedure. Experimental animals were euthanized by anesthetia immediately before photographing, then wound regions were dissected out after photographing or after dissecting out wound regions, photographing was performed. Thereafter, the wound region tissues were stored in the fixative. FIG. 5 and FIG. 6 are photographs in place of drawings.
The punch biopsy with diameter 6 mm was performed in the dorsal 6 regions of each animal under inhalation anesthesia to prepare open wound. Thereafter, 0.1 g of propet (ophthalmic white vaseline) containing ginsenoside Rb1 at the concentrations of 0.0001% by weight (10^−4% by weight), 0.00001% by weight (10^−5% by weight), 0.000001% by weight (10^−6% by weight), 0.0000001% by weight (10^−7% by weight) and 0.00000001% by weight (10^−8% by weight), respectively, was applied externally, once a day, for 9 days on each open wound. The equal amount of propet alone was applied externally or topically in the control animals. Then, immediately after euthanasia by anesthetization, the skin containing the open wound was dissected out and photographed. The collected skin tissue was preserved in a fixative. FIG. 12 is a photograph in place of drawing.
In each case, there are three wounds on the left side and three wounds on the right side, totally 6 marks of open wounds.
In the experimental cases hereinbefore explained, an area of open wound (flair region) applied externally only with propet is set as a denominator and an area of open wound administered externally with ginsenoside Rb1 at concentrations from 10^−4% by weight to 10^−8% by weight is set as a numerator, and ratio thereof is calculated. In FIG. 13, n=3 and single asterisk (*) indicates significant difference, P<0.05, and two asterisks (**) indicate significant difference, P<0.01. Statistical test was performed according to Scheffe's post hoc test.
Details of dihydroginsenoside Rb1 is described in the specification of PCT/JP00/04102 (Brain cell or nerve cell protecting agents comprising ginseng). The punch biopsy with diameter 6 mm was performed at 5 places in the dorsal region of rats (n=4) under inhalation anesthesia to prepare open wound. Thereafter, 0.1 g of propet containing dihydroginsenoside Rb1 at concentrations of 0.0001% by weight (10^−4% by weight), 0.00001% by weight (10^−5% by weight), 0.000001% by weight (10^−6% by weight) and 0.0000001% by weight (10^−7% by weight), respectively, was applied topically or externally, once a day, for 9 days onto each open wound. The equal amount of propet alone was applied externally or topically in the control animals. Then, immediately after euthanasia by anesthetization, the skin containing the open wound was dissected out and photographed. The collected skin tissue was preserved in a fixative. FIG. 14 is a photograph in place of drawing. In FIG. 14, four cases are shown, and from the upper column, the first case, the second case, the third case and the fourth case are shown.

[2] = Observation of administered animals for side effects; assay type: in vivo, rats; conditions: present experiments, animals carefully observed
From the text: The amount of administration of ginsenoside Rb1, which is used as the preparation(s) for external or topical application to skin or the preparation(s) for external or topical application to mucosa, is far smaller than the amount of intravenous administration.
Actually, as indicated in PCT/JP00/04102 (Brain cell or nerve cell protecting agents comprising ginseng), as far as directing treatment or therapy of cerebral infarction by continuous intravenous administration in a dose of […] (weighing 300 g), dihydroginsenoside Rb1 is thought to be a quite safe pharmaceutical composition. The amount of administration of ginsenoside Rb1, which is used as the preparation(s) for external or topical application to skin or the preparation(s) for external or topical application to mucosa, is far smaller than the amount of intravenous administration.

[3] = test system: cerebral infarct lesion; conditions: intravenous 6 pg/day-60 pg/day, rats weighing 300 g; PCT/JP00/04102; cited from earlier work
[4] = test system: cultured nerve cells (neurons); test: SNP-induced apoptosis of cultured nerve cells, MAP2 immunoblotting; assay type: cell-based, rats
From the text: We (Sakanaka and Tanaka) had reported that when cultured nerve cells were exposed for a short time to sodium nitroprusside, apoptosis or apoptosis-like cell death of neurons is induced (Toku, K. et al., J. Neurosci. Res., 53, 415-425, 1998). […] We have examined the neuroprotective action of dihydroginsenoside Rb1 using the same experimental system.
Nerve cells were isolated from the cerebral cortices of fetal rats at gestation day 17 by using trypsin EDTA and seeded onto 24 well plate coated with poly-L-lysine. After incubating the cells in Dulbecco's modified Eagle's medium (DMEM) containing 10% fetal calf serum for 16 hours, the culture medium was replaced with a serum-free medium for neuronal culture containing insulin, transferrin, etc. and the neurons were cultured for 3 or 4 days. On day 3 or 4 of culture, sodium nitroprusside (SNP) at the concentration of 300 μM was added to the neuronal culture and incubated for 10 minutes. […] In order to quantify the survival rate of nerve cells or neurons, immunostained MAP2 band was analyzed with densitometry. […]
Nerve cells were isolated from cerebral cortices of fetal rats on gestation day 17 by using trypsin EDTA and seeded onto a 24 well plate(s) coated with poly-L-lysine. […] In order to quantify survival rate of nerve cells, immunostained MAP2 band was analyzed with densitometry.

In the case of `CC(C)CCC[C@](C)(O[C@@H]1O[C@H](CO[C@@H]2O[C@H](CO)[C@@H](O)[C@H](O)[C@H]2O)[C@@H](O)[C@H](O)[C@H]1O)[C@H]1CC[C@]2(C)[C@@H]1[C@H](O)C[C@@H]1[C@@]3(C)CC[C@H](O[C@@H]4O[C@H](CO)[C@@H](O)[C@H](O)[C@H]4O[C@@H]4O[C@H](CO)[C@@H](O)[C@H](O)[C@H]4O)C(C)(C)[C@@H]3CC[C@]12C` [dihydroginsenoside Rb1], the “ratio of open wound area to propet alone (FIG. 15)” value ([1]; 0.00001% by weight (10^−5% by weight) or less, n=4, Fisher's PLSD P<0.05) is reported as “facilitated significantly wound healing”, the “therapeutic effect on open wound in rats” value ([1]; 0.0001% by weight (10^−4% by weight)) is reported as “trivial” and the “area of open wound region relative to control” value ([1]; dihydroginsenoside Rb1 at 10^−5%, 10^−6% or 10^−7% by weight) is reported as “½-¼”. The “hair growth in wound healing region (FIG. 14)” value ([1]; low concentrations of dihydroginsenoside Rb1) was “obvious hair growth was observed”, the “wound healing vs propet alone (FIG. 14)” value ([1]; propet containing 10^−5% to 10^−7% by weight (100 ng/g to 1 ng/g), once a day for 9 days, n=4) was “wound healing was obviously promoted” and the “side effect in administered animals” value [2] was “no side effect was noted”. The “therapeutic effect on brain infarction” value [3] was “excellent therapeutic effect on brain infarction”, the “apoptosis or apoptosis-like cell death of neurons caused by SNP, MAP2 band (FIG. 16)” value ([4]; 0.01 fg/ml (lane 3) to 1 ng/ml (lane 7), SNP 300 μM 10 minutes, 16 hours after SNP) was “obviously inhibited” and the “apoptosis or apoptosis-like cell death of nerve cells, MAP2 densitometry (FIG. 17)” value ([4]; 0.01 fg/ml to 1 ng/ml, n=5, P<0.001 / P<0.0001) was “significantly inhibited”.
For EGF: epidermal growth factor, the “action to promote wound healing” value [1] was “inferior to the effects of continuous intravenous administration of ginsenoside Rb1”.
For PDGF, the “action to promote wound healing” value [1] was “inferior to the effects of continuous intravenous administration of ginsenoside Rb1”.
With bFGF: basic fibroblast growth factor the “action to promote wound healing” value [1] was “inferior to the effects of continuous intravenous administration of ginsenoside Rb1”.
